Blank lines part the entries; values can stand above or below the compound they belong to. Positions of bridges follow the written chain, without caps; N, C: chain ends. No end group written: not given here.
How the values were obtained:
KCa2/3 channels = details: ref Strøbæk et al., 2004; cited from earlier work
hKCa3.1 = hKCa3.1 (Homo sapiens, UniProt O15554); assay: Whole-cell patch-clamp of KCa3.1 currents; type: cell-based
hKCa2.1 = hKCa2.1 (Homo sapiens, UniProt Q92952); assay: Whole-cell patch-clamp of KCa2.1 currents; type: cell-based
rKCa2.2 = rKCa2.2 (Rattus norvegicus, UniProt P70604); assay: Whole-cell patch-clamp of KCa2.2 currents; type: cell-based
hKCa1.1 = hKCa1.1 (Homo sapiens, UniProt Q12791); assay: Selectivity patch-clamp, KCa1.1 currents; type: cell-based; details: 100 μM; 1 μM free Ca2+
mKv1.1 = mKv1.1 (Mus musculus, UniProt P16388); assay: Selectivity patch-clamp, Kv1.1 currents; type: cell-based
hKv1.5 = hKv1.5 (Homo sapiens, UniProt P22460); assay: Selectivity patch-clamp, Kv1.5 currents; type: cell-based
mKv3.1 = mKv3.1 (Mus musculus, UniProt P15388); assay: Selectivity patch-clamp, Kv3.1 currents; type: cell-based
Rat Kv3.2 = Rat Kv3.2 (Rattus norvegicus, UniProt P22462); assay: Selectivity patch-clamp, Kv3.2 currents; type: cell-based
rKv4.2 = molecular target: T1, rKv4.2 (Rattus norvegicus, UniProt Q63881); assay: Selectivity patch-clamp, Kv4.2 currents; type: cell-based
T1 sequence (Q63881 1-630): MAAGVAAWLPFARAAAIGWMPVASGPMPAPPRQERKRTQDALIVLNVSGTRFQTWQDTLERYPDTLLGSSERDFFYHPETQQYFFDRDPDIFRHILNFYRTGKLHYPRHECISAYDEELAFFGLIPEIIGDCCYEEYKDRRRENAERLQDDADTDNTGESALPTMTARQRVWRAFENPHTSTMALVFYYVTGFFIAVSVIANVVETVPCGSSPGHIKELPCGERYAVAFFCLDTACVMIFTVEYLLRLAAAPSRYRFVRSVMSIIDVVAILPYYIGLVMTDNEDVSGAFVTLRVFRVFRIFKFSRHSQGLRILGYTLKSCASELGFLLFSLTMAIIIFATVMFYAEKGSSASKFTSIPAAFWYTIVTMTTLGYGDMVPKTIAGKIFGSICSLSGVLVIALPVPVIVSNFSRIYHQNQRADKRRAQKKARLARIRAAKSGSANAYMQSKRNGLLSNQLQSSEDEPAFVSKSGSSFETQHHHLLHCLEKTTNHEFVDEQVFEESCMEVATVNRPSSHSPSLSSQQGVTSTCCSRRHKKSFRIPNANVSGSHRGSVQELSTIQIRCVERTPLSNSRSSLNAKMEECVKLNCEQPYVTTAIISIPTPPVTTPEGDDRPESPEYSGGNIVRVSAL

K2P2.1 (TREK-1) = molecular target: T2, K2P2.1 (TREK-1) (Mus musculus, UniProt P97438); assay: Selectivity patch-clamp, endothelial cell TREK-1 currents; type: cell-based
T2 sequence (P97438 1-426): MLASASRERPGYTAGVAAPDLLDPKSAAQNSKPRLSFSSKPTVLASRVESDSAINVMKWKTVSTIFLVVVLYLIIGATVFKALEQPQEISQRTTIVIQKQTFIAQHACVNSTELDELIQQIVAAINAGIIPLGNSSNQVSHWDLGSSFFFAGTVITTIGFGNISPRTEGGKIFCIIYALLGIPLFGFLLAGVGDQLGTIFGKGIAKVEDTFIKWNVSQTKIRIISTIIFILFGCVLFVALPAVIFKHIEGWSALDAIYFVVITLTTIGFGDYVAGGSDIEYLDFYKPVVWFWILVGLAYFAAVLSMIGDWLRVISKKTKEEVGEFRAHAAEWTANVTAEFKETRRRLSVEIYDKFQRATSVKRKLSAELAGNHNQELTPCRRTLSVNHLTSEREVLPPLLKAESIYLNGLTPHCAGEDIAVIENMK

Nav1.2 = Nav1.2 (Mus musculus, UniProt B1AWN6); assay: Selectivity patch-clamp, Nav1.2 currents from N1E-115 cells; type: cell-based
cloned KCa3.1 channels = details: read-out: EC50 cloned KCa3.1 channels; ref Wulff et al., 2007; cited from earlier work
hKCa2.3 = hKCa2.3 (Homo sapiens, UniProt Q9UGI6); assay: Whole-cell patch-clamp of KCa2.3 currents; type: cell-based; details: read-out: IC50 blockade of hKCa2.3 currents; currents activated with 10 μM SKA-31; 250 nM free Ca2+
mice [1] = assay: Maximal electroshock; type: in vivo, mouse; details: 100 mg/kg i.p., 15 min, 30 min and 1 hour
mice [2] = type: in vivo, mouse; details: 100 mg/kg i.p., 15 min, 30 min and 1 hour

Chain of hKCa3.1 (O15554 whole entry): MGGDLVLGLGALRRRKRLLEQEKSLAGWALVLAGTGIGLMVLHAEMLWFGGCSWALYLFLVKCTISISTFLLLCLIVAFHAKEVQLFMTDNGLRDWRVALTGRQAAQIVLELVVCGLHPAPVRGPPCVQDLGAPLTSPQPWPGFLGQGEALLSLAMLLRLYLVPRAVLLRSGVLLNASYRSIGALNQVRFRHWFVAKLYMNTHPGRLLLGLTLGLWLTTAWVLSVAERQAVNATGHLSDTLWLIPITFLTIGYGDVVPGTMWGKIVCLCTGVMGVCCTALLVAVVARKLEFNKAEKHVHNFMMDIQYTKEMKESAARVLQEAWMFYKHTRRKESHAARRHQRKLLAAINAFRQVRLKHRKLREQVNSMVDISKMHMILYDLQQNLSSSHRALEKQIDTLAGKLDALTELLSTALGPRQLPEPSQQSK
Chain of hKCa1.1 (Q12791 whole entry): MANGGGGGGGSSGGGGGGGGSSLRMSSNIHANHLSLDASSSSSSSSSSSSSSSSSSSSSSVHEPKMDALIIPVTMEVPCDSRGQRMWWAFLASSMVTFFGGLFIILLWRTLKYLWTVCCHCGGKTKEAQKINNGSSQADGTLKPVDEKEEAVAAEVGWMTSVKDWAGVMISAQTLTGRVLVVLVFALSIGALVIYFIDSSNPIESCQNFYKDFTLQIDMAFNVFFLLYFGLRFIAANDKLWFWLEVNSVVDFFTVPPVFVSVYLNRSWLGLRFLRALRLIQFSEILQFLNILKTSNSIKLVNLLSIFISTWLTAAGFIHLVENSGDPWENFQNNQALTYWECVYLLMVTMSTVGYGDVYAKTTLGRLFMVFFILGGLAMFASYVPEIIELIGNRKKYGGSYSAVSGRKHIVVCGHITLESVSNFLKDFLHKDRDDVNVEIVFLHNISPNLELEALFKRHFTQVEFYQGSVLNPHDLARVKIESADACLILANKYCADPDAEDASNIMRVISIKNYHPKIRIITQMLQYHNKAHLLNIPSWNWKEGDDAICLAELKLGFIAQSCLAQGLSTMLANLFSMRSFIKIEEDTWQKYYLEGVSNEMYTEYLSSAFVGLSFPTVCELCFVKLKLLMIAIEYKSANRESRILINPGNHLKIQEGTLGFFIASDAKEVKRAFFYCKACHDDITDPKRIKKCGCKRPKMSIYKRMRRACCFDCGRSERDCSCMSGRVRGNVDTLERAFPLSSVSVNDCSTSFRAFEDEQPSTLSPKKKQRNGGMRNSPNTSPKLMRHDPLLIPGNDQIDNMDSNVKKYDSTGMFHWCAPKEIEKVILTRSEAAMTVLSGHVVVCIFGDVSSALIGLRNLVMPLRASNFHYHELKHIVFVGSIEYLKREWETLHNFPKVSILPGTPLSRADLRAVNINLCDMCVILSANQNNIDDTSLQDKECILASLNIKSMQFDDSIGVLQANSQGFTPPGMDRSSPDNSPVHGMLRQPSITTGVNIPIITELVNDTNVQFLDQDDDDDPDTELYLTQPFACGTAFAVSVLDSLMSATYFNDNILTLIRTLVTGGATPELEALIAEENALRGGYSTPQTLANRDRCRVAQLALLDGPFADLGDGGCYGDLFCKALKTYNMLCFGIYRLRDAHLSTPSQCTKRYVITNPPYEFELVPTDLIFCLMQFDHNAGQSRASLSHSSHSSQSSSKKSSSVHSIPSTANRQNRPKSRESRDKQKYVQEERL
Chain of mKv1.1 (P16388 whole entry): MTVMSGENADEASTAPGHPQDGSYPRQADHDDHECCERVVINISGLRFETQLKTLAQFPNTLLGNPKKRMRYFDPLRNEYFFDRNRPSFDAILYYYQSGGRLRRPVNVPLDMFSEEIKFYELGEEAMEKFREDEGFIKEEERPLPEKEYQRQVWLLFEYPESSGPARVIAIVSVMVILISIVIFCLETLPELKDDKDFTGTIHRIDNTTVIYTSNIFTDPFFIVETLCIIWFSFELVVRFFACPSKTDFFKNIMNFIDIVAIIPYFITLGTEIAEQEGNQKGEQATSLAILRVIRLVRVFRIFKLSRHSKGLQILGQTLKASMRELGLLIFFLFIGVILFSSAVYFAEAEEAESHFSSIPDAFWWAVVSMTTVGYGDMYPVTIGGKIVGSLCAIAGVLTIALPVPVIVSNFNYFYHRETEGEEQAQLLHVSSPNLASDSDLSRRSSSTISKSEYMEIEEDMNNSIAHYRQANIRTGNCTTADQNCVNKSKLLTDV
Chain of hKCa2.3 (Q9UGI6 whole entry): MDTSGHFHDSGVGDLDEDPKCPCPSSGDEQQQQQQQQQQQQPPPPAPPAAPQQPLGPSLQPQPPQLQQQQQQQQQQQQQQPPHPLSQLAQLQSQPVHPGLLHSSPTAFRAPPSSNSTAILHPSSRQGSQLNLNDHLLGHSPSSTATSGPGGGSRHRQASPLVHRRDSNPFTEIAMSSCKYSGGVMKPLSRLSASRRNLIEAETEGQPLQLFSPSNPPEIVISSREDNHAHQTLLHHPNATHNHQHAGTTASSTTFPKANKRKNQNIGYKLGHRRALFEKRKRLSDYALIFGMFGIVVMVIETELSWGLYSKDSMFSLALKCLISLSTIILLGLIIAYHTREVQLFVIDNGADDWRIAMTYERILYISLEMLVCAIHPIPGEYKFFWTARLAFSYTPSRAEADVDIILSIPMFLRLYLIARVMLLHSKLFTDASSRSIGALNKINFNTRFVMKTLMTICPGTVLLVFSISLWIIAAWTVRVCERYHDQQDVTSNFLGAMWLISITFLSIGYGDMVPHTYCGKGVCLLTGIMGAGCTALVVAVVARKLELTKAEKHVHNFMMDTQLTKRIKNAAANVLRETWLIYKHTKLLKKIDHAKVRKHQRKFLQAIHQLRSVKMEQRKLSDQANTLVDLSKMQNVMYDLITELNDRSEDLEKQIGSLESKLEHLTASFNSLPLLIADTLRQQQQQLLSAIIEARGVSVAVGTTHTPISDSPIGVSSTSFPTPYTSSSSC
Chain of hKCa2.1 (Q92952 whole entry): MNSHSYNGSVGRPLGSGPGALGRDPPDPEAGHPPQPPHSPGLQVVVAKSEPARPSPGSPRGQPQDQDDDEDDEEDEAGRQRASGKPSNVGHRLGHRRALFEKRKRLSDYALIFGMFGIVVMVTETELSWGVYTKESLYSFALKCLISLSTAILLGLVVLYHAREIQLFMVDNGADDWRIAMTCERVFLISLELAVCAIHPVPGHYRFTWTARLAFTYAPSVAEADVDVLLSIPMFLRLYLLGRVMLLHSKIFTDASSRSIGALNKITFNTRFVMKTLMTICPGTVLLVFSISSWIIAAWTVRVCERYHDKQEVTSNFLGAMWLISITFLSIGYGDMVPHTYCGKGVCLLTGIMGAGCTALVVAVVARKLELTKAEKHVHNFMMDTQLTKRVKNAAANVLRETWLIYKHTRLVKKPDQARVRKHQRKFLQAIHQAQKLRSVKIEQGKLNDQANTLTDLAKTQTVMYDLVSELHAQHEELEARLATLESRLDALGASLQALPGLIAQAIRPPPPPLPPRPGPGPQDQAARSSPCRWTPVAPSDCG
Chain of hKv1.5 (P22460 whole entry): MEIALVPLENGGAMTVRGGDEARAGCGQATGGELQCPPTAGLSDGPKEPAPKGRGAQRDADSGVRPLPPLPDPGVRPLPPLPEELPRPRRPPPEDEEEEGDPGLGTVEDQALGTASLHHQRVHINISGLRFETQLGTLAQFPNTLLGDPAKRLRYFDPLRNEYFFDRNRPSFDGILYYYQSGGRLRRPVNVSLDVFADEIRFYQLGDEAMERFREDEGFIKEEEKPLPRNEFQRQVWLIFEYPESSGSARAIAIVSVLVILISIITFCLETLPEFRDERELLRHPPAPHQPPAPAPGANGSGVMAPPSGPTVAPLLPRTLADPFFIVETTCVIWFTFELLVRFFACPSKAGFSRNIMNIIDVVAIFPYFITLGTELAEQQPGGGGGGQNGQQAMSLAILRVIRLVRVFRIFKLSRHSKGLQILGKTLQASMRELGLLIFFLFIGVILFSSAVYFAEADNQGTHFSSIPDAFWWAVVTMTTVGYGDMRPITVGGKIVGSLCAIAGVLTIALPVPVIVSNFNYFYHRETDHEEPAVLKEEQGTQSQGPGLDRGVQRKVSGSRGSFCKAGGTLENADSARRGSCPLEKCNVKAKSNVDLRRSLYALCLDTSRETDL
Chain of rKCa2.2 (P70604 whole entry): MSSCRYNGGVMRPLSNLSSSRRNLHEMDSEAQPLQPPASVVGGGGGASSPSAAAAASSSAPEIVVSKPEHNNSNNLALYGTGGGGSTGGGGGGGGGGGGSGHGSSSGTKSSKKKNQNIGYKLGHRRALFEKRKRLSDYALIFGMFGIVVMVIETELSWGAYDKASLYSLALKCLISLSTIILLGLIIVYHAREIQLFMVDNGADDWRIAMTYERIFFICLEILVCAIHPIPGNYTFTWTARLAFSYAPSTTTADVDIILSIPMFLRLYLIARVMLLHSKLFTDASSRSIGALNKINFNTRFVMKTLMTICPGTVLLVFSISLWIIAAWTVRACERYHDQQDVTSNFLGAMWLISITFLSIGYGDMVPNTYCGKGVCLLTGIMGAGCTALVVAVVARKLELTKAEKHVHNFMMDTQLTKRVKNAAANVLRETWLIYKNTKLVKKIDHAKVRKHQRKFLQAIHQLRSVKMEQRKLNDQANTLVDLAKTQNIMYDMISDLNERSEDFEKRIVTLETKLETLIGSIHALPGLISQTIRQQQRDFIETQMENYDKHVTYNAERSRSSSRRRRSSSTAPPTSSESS

Compound: O=C1Nc2c(ccc(Cl)c2Cl)C1=NO [NS309, 6,7-dichloro-1H-indole-2,3-dione 3-oxime]
- concentrations activating KCa2 and KCa3.1 channels (KCa2/3 channels): submicromolar concentrations

- EC50 (hKCa3.1): 1.9 µM
- increase of KCa3.1 currents (hKCa3.1; 250 nM [Ca2+]i): ~30 fold
- increase of KCa3.1 currents (hKCa3.1; 1 μM [Ca2+]i): roughly 3 fold
- EC50 (hKCa2.1): 21 µM
- EC50 (rKCa2.2): 12.8 µM
- effect on KCa1.1 current at 100 μM (hKCa1.1): Doubles current at 100 μM
- IC50 (mKv1.1): 92 ± 7 µM
- IC50 (hKv1.5): 95 ± 5 µM
- IC50 (mKv3.1): 95 ± 5 µM
- IC50 (Rat Kv3.2): 100 ± 10 µM
- IC50 (rKv4.2): 130 ± 10 µM
- EC50 (K2P2.1 (TREK-1)): 110 ± 35 µM
- IC50 (Nav1.2): 15 ± 3 µM
Compound: Nc1nc2ccc(OC(F)(F)F)cc2s1 [Riluzole, 2-amino-6-[trifluoromethoxy]benzothiazole, reference compound]

Compound: CCn1c(=O)[nH]c2ccccc21 [EBIO, 1-ethylbenzimidazolin-2-one]
- EC50 (cloned KCa3.1 channels): 30 µM

Compound: apamin (CNCKAPETALCARRCQQH-NH2; disulfide 1-11, 3-15; ends not checked; UniProt P01500 28-45, looked up)
- IC50 (hKCa2.3): ~0.001 µM

Compound: Nc1nc2cc3c(cc2s1)CCC3 [SKA-29, 6,7-Dihydro-5H-indeno[5,6-d]thiazol-2-amine]
- protection from seizures, maximal electroshock (MES) model (mice [1]): effectively protect mice from seizures
- protection from seizures, 6 Hz minimal electroshock model (mice [2]): effectively protect mice from seizures
